These results are taken from a melting point compilation (Tetko et al.; mined from patent text by program, amines drawn as free bases though some values may be those of a salt).

On to `N#Cc1cnc(N)cc1N`, for which the melting point (usually the temperature, or range, at which the solid turns liquid) is 197 to 198 °C. Next, `CCOC(=O)C(C)Oc1ccc(N(C)c2nc3cc(Cl)ccc3o2)cc1` (stereo not given): 68 to 68.6 °C. `CC1CCc2ccc(OCC3CO3)cc2O1` (stereo not given) showed a melting point of 67 to 69 °C. As to `CCOC(=O)c1c(CCl)nc2cc(OC)c(OC)cc2c1-c1ccc(OC)c(OC)c1`, the melting point fell in the range of 147 to 148 °C. `N#CC1=Cc2cc(Cl)ccc2OC1` returned a melting point of 124 to 126 °C.

Molecule `CC(C)(C)OC(=O)N[C@@H](Cc1ccccc1)C(=O)CCl` yielded a melting point of 101 to 102 °C. For `CCOC(=NC(=O)c1ccncc1)N1Cc2ccccc2-c2ccccc2C1` the value was 120 to 122 °C; for `OCC1OC(n2cnc3c(N4CCOCC4)ncnc32)CC1F` (stereo not given), 175 to 178 °C; for `ClCCCc1cc2cccnc2[nH]1`, 75 °C. Next, `CCCCSc1cc(C(=O)OCC#N)cc(S(N)(=O)=O)c1Oc1ccccc1`: 134 to 135 °C. Molecule `O=C(Cc1c(-c2cccnc2)c2cc(CN3CCN(c4ccccc4)CC3)c(Cl)cc2oc1=O)Nc1ccc(Cl)cc1C(F)(F)F` yielded a melting point of 214 to 216 °C. `CN1CCN(c2nc3c(c(NCCO)n2)SCCC3)CC1` registered a melting point of 162 to 164 °C. Take `CC(C)n1nc(-c2c(-c3ccccc3)nc(N)nc2N(C)C)ccc1=O`: the melting point lay in the range of 293 to 296 °C.

Take `CC(C)(C)P(c1cccc2ccccc12)C(C)(C)C`: the melting point lay within 95 to 97 °C.

Take `Nc1ccnn1-c1c(F)c(F)c(C(F)(F)F)c(F)c1F`: the melting point lay in the range of 103 to 104 °C. Next, `O=C1CCC(c2ccc(N3CC(CO)OC3=O)cc2)CC1` (racemic): 152 °C; `CC(O)(c1ccccc1)c1cc(Cl)ccc1N` (stereo not given): 93 to 94 °C. In turn, `Cc1cc(SC2=C(O)CC(CCc3ccsc3CO)(C(C)C)OC2=O)c(C(C)(C)C)cc1CO` (stereo not given) registered a melting point of 87 to 90 °C. For `NC(=O)c1cnc2ccccc2c1` the value was 132 to 138 °C.

The molecule `Sc1nc2ccccc2n1CCCN1CCN(C(c2ccccc2)c2ccccc2)CC1` had a melting point of 182 °C. In turn, `O=[N+]([O-])c1ccc(C#CBr)cc1` yielded a melting point of 170 °C. Next, `O=C(Nc1cc2ccccc2cn1)c1cncnc1NCc1ccncc1`: 218 to 220 °C; `CCCc1c(OCCCCCCc2cccc(OCCCCCCC(=O)O)c2CCC(=O)O)ccc2c1OCCC2=O`: 91 to 93 °C. The molecule `COc1ccccc1N(CCN1CCC(C(=O)c2ccc(F)cc2)CC1)C(=O)c1ccc([N+](=O)[O-])cc1` registered a melting point of 166 to 168 °C. Next, `COc1cc2c(cc1OC)C(COCCN1CCCCC1)OCCC2` (stereo not given): 124 °C. Next, `CNC(=S)C1(c2ccccn2)OCCCS1` (stereo not given): 157 °C. For `CS(=O)c1ccc(-c2cnn3c(O)ncnc23)cc1` (stereo not given) the value was 285 to 286 °C; for `CC(C)(C)c1cc(Br)c2cc(C(C)(C)C)cc(Br)c2c1`, 226 °C. The molecule `CCCNCc1cnc(-c2ncn3c2CN(C)C(=O)c2cc(F)ccc2-3)o1` gave a melting point of 134 to 136 °C. In turn, `C1=CCC(C2CCCCCCC2)N=NC(C2CCCCCCC2)CC=CCC1` (stereo not given) had a melting point of 62 to 63 °C. `Cc1c(Cc2cccnc2)sc2ccc(C(=O)O)cc12` had a melting point of 230 to 232 °C. The molecule `CCOC(=O)c1cnoc1-c1ccc(F)cc1` displayed a melting point of 34 to 38 °C. Next, `CCCN(C(=O)COc1c(C)cccc1C)C1CCc2c(ccc(O)c2O)C1` (stereo not given): 153 to 155 °C; `Cc1cc(-c2csc(NC(=N)N)n2)c[nH]1`: 235 to 237 °C; `CCOC(=O)c1oc(C(C)(C)C)cc1N`: 44 to 45 °C. Next, `CCN(c1nc(F)ccc1[N+](=O)[O-])C1CCN(Cc2ccccc2)CC1`: 99 to 100 °C; `O=Cc1ccc(N2CCC3(CC2)OCCO3)c(Br)c1`: 63 to 64 °C.

Turning to `CN1C(=O)C(CC(=O)Nc2ccc(Cl)cc2)N=C(c2ccccc2)c2ccccc21` (stereo not given), the melting point was in the range of 238 to 240 °C. For `CC(C)(C)C(O)(COc1ccccc1)c1cncnc1` (stereo not given) the value was 127 to 129 °C; for `c1cc(-c2c(-c3ccsc3)nc3ccc(N4CC5CNCC5C4)nn23)ccn1` (stereo not given), 196 to 198 °C. As for `O=S1(=O)CCN2C=CC=C(c3ccc(Oc4ccc(Cl)cc4)cc3)C2=N1`, the melting point lay in the range of 232 to 234 °C. The molecule `O=C(O)c1cc(OCC(F)(F)F)cc(Oc2cccc(C(F)(F)F)c2)n1` yielded a melting point of 93 to 95 °C. For `O=C(Nc1ccc(F)c(C(F)(F)F)c1)c1csc2cc(Oc3cc(CO)ncn3)ccc12` the value was 138 to 140 °C; for `Cc1cc(N)c2cc(NC(=O)C=Cc3ccccc3C(F)(F)F)ccc2n1`, 272 to 273 °C.

`COC(=O)C=Cc1cnc(N2CCC[C@H]2CO)nc1NCc1ccc(OC)c(Cl)c1`: the melting point is 163 to 164 °C. In turn, `C=CCN1CCN(c2cc3c(cc2Cl)c(=O)c(C(=O)O)cn3CC)CC1` gave a melting point of 212 °C. For `CCc1cc(O)c(C(=O)CCc2ccc3occc3c2)c(OC2OC(CO)C(O)C(O)C2O)c1` (stereo not given) the value was 146 to 148 °C. In the case of `O=[N+]([O-])c1ccc(Cl)cc1NC1CCN(Cc2ccccc2)CC1`, the melting point came out at 84 °C.

`CC(OCc1cc2nc(C(F)(F)F)ccc2n1S(=O)(=O)c1ccccc1)C(=O)O` (stereo not given) yielded a melting point of 140 °C. In turn, `CCn1nc2oc(C=CC(N)=O)c(C)c2c1C` had a melting point of 258 to 260 °C. On to `O=C(O)c1ccc(OCC(O)c2cc3ccccc3o2)cc1` (stereo not given), for which the melting point was in the range of 153 to 155 °C. For `CCOC(=O)C(=O)c1csc(NC(=O)Nc2ccc(Cl)cc2)n1` the value was 230 to 234 °C; for `O=C1CC(c2sccc2Cl)=Nc2ccc(-c3ccc(F)cc3)cc2N1`, 255 to 256 °C; for `CN1C(=O)N(CCC(COc2ccc(-c3ccc(C#N)cc3)cc2)N(O)C=O)C(=O)C1(C)C` (stereo not given), 68 to 70 °C.

In turn, `COc1cc2oc(C(=O)O)cc2cc1Cl` registered a melting point of 283 °C. Molecule `COC(=O)CS(=O)(=O)CCC=C1SC=CS1` showed a melting point of 133 to 135 °C.

As for `CC(C)(C)c1cc(NC(=O)Nc2ccc(Oc3ccccc3)cc2)on1`, the melting point is 182 to 184 °C. With `ClCc1ccc(-c2nsc3ccccc23)cc1`, the melting point fell in the range of 86 to 89 °C. Take `Cc1oc(-c2ccco2)nc1COc1ccc(C#N)cn1`: the melting point was in the range of 105 to 106 °C. Next, `CC(Cc1ccccc1)(C(=O)NO)S(=O)(=O)c1cccs1` (stereo not given): 116 to 117 °C; `CCCCNC(=O)C(=O)NCCCCCO`: 136 to 137 °C; `C(=Cc1ccc(-c2nc(-c3ccc(C=Cc4ccccc4)cc3)n(-c3ccccc3)n2)cc1)c1ccccc1`: 218 to 220 °C. As to `O=C(OCC1OC(n2cnc3c(N(C(=O)c4ccccc4)C(=O)c4ccccc4)ncnc32)C(O)(C(=O)c2ccccc2)C1(O)C(=O)c1ccccc1)c1ccccc1` (stereo not given), the melting point was in the range of 183 to 184 °C. `Cn1nnnc1Cn1nnnc1Cl` registered a melting point of 138 to 140 °C. Molecule `CCN(CC)c1nc(Nc2ccc3cc(-c4ccccc4)c(=O)oc3c2)nc(N2CCCC(CO)C2)n1` (stereo not given) gave a melting point of 182 to 183 °C. `COc1ccc(CNC(=O)c2cc([N+](=O)[O-])ccc2N[C@@H](CO)CCSC)cc1OC`: the melting point lay within 150 to 152 °C. Consider `CN(C)c1cccc(Oc2ncccc2C(=O)NCc2ccccc2Cl)c1`, for which the melting point was in the range of 85 to 87 °C.

Take `O=C(c1ccc([N+](=O)[O-])c(OCc2ccc(-c3ccccc3-c3nnnn3C(c3ccccc3)(c3ccccc3)c3ccccc3)cc2)c1)N1CCOCC1`: the melting point lay within 188 to 190 °C. Next, `COc1cc2ncnc(C3C(=O)N(C)c4ccccc43)c2cc1OC` (stereo not given): 233 to 235 °C; `c1cc2cc(N3CCOCC3)ccc2s1`: 127 to 132 °C; `COc1cccc2c(=O)n(C)c(-c3ccc(OC4CCN(C5CCC5)CC4)cc3)nc12`: 201 to 204 °C. The molecule `CCCCNc1cc(C#N)cc(S(N)(=O)=O)c1Oc1ccccc1` displayed a melting point of 217 to 218 °C. `CC(C)(C)OC(=O)N[C@@H]1CCc2ccc(OS(=O)(=O)C(F)(F)F)cc2C1` returned a melting point of 52 to 55 °C.

`C=CCN1CCCN(c2ccc(Cl)cc2C)C1=S` returned a melting point of 101 to 103 °C. With `CCOC(=O)C1=C(N)NC2=C(C(=O)CCC2)C1c1nccc2ccccc12` (stereo not given), the melting point worked out at 272 °C. Regarding `OCCCc1ccc(O)cc1`, the melting point was in the range of 52 to 54 °C.

For `CCCC(=O)c1cnc2c(OCCOC)cccc2c1Nc1ccccc1C`, the melting point was 75 to 77 °C. In the case of `COc1cc2cc(C(=O)O)sc(=O)c2cc1OC`, the melting point is 306 to 307 °C. For the molecule `COc1ccc(C2=NN(Cc3ccc([N+](=O)[O-])cc3)C(=O)CC2)cc1OC`, the melting point stood at 126 °C. For `CS(=O)c1ccc(-c2coc3ccc(-c4nnc(O)o4)cc23)cc1` (stereo not given), the melting point lay within 234 to 237 °C. As to `CC1(C)OC(C=Cc2ccc(C(F)(F)F)cc2)=CC1=O`, the melting point lay in the range of 94 to 95 °C. Next, `CCCCSc1ccccc1C(=O)O`: 96 to 101 °C; `COc1ccc(C=Cc2cc(OC)c3c(c2)OCO3)cc1O`: 145 to 150 °C; `Fc1cc2c(cc1Cl)C(Cl)Cc1ccccc1S2` (stereo not given): 94 to 96 °C.

Consider `CS(=O)c1ccc(-n2cnnn2)cc1` (stereo not given), for which the melting point lay within 175 to 176 °C. In turn, `COc1ccc2c(c1)c(=O)oc(=O)n2-c1ccc(OCc2ccccc2)cc1` registered a melting point of 155 °C. For `O=C(c1cccs1)c1scc(Br)c1Br` the value was 105 to 109 °C; for `O=C(C=Cc1ccc(-c2ccc3ncnc(Nc4ccc(OCc5cccc(F)c5)c(Cl)c4)c3c2)o1)NOC1CCCCO1` (stereo not given), 233 °C; for `COc1cc2c(N3CCN(Cc4ccccc4)CC3)nc(-c3ccc(Cl)cc3)nc2c(OC)c1OC`, 150 °C. Next, `CCOC(=O)C1=C(C)NC(C)=C(C(=O)N[C@H](C(=O)OCC)C(C)C)[C@@H]1c1cccc([N+](=O)[O-])c1`: 135 to 136 °C.
